# Assay results from patent publication US20260021103A1, “IKZF2 AND CK1-ALPHA DEGRADING COMPOUNDS AND USES THEREOF” (President and Fellows of Harvard College, priority 2022, published 2026).
# What was measured:
# Assay type in all cases: cell-based
# IKZF2 = target: T1, IKZF2 (Homo sapiens, UniProt Q96SW2+Q9UKS7); assay: Flow cytometry for measuring degradation, HEK293T GFP-POI reporter cells (IKZF2); settings: for IKZF2% degradation at 100 nM / IKZF2% degradation at 1 μM: 24 h, HEK293T GFP reporter; for Dmax: HEK-293T; for Dmax / DC50: Table 3
# T1 construct: expressed in transfected cells; host or cells: HEK293T (lentiviral transduction, puromycin selection, FACS sorting)
# T1 sequence (Q9UKS7 whole entry): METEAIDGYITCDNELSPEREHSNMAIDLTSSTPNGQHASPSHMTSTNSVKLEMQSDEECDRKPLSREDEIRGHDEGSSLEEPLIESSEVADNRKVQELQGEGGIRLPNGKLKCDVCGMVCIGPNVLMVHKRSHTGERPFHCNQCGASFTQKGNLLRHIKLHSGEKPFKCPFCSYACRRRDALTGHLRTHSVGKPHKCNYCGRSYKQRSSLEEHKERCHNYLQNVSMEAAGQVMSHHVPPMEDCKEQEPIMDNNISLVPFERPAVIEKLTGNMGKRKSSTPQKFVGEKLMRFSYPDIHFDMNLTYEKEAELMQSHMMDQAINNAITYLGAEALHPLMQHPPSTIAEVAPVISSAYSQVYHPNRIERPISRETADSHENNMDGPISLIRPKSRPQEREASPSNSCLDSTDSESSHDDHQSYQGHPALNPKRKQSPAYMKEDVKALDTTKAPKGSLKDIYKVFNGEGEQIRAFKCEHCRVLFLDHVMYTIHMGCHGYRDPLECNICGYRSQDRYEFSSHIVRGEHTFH
# T1 sequence (Q96SW2 whole entry): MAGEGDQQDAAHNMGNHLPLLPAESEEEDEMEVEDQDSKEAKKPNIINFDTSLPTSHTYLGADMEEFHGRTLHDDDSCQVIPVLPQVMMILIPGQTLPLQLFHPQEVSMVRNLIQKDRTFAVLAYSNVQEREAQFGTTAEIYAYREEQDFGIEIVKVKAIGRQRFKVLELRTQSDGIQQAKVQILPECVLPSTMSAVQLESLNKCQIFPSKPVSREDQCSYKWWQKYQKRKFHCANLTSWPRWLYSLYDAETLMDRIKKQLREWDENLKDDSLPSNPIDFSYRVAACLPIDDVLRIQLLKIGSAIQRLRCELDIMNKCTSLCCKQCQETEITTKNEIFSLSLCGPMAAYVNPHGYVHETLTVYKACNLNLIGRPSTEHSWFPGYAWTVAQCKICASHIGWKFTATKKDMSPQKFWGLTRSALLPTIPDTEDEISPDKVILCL
# T1 sequence (Q16531 whole entry partner): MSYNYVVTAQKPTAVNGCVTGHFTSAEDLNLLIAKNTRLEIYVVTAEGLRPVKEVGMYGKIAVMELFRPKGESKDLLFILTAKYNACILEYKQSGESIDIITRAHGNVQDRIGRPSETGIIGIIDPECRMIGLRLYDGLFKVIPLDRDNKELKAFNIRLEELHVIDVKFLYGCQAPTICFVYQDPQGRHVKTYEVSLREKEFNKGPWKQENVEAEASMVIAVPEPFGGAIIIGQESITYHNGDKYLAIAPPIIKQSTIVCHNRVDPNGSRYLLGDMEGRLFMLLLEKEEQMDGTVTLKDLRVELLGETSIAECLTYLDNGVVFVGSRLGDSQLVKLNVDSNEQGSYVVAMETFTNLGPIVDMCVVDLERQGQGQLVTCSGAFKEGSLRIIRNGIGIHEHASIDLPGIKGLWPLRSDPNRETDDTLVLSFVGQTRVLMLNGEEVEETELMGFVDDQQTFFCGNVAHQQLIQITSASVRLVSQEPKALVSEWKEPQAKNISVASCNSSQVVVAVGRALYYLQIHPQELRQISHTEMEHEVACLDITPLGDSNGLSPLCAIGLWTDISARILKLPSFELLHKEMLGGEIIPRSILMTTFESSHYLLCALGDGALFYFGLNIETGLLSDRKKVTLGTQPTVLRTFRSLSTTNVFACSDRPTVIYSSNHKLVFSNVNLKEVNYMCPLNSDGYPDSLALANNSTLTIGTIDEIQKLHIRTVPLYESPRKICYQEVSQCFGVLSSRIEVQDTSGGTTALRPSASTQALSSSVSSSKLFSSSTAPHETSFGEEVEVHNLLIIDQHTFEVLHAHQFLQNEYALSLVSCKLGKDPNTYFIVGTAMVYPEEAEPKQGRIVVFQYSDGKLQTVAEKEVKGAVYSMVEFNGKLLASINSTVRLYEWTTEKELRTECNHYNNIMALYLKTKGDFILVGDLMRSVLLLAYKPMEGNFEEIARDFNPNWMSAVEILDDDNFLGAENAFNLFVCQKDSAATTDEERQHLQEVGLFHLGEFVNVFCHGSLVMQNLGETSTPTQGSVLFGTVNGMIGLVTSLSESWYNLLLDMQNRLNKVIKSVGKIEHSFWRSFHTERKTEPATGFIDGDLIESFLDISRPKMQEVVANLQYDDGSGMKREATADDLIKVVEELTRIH
# IKZF1 = target: T2, IKZF1 (Homo sapiens, UniProt Q13422+Q96SW2); assay: Flow cytometry for measuring degradation, HEK293T GFP-POI reporter cells (IKZF1); settings: for IKZF1% degradation at 100 nM / IKZF1% degradation at 1 μM: 24 h, HEK293T GFP reporter; for Dmax: HEK-293T, Table 3
# T2 construct: expressed in transfected cells; host or cells: HEK293T (lentiviral transduction, puromycin selection, FACS sorting)
# T2 sequence (Q13422 whole entry): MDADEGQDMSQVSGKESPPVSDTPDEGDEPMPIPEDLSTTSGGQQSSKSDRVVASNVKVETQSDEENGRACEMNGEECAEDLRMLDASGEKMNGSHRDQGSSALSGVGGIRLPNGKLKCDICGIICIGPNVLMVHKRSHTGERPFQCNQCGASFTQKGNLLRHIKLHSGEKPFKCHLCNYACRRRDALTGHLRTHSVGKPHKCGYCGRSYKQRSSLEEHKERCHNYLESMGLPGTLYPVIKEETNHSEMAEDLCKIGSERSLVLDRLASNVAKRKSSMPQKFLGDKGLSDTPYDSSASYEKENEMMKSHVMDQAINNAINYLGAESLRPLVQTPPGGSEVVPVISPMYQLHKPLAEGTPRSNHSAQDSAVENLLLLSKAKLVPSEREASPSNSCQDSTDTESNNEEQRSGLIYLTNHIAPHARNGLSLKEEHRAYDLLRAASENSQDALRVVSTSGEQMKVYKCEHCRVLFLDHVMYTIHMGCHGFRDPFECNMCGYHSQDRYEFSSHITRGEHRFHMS
# T2 sequence (Q96SW2 whole entry): as the sequence (Q96SW2 whole entry) above
# T2 sequence (Q16531 whole entry partner): as the sequence (Q16531 whole entry partner) above
# GSPT1 = GSPT1 (Homo sapiens, UniProt P15170+Q96SW2); assay: Flow cytometry for measuring degradation, HEK293T GFP-POI reporter cells (GSPT1); design: expressed in transfected cells; host or cells: HEK293T; settings: for GSPT1% degradation at 100 nM / GSPT1% degradation at 1 μM: 24 h, HEK293T GFP reporter; for Dmax: HEK-293T, Table 3
# Chain of GSPT1 (P15170 whole entry): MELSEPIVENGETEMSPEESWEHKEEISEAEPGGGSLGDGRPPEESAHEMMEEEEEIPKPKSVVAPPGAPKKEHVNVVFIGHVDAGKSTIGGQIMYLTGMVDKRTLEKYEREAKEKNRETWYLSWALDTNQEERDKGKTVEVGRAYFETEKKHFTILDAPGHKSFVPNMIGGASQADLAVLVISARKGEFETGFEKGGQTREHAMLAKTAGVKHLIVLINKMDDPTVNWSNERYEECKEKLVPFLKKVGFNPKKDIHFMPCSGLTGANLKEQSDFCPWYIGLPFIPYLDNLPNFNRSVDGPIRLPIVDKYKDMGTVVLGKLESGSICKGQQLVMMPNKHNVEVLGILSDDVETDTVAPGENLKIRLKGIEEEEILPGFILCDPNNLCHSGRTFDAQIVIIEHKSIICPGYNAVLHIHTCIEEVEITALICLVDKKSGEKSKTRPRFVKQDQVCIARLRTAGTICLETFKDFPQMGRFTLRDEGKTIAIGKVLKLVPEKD
# Chain of GSPT1 (Q96SW2 whole entry): as the sequence (Q96SW2 whole entry) above
# Chain of GSPT1 (Q16531 whole entry partner): as the sequence (Q16531 whole entry partner) above
# CK1α = target: T3, CK1α (Homo sapiens, UniProt P48729+Q96SW2); assay: Flow cytometry for measuring degradation, HEK293T GFP-POI reporter cells (CK1α); settings: for CK1α % degradation at 100 nM / CK1α % degradation at 1 μM: 24 h, HEK293T GFP reporter; for Dmax: CK1, read-out: Dmax CK1a (%); for Dmax / DC50: Table 3; for DC50: read-out: DC50 CK1a
# T3 construct: expressed in transfected cells; host or cells: HEK293T (lentiviral transduction, puromycin selection, FACS sorting)
# T3 sequence (P48729 whole entry): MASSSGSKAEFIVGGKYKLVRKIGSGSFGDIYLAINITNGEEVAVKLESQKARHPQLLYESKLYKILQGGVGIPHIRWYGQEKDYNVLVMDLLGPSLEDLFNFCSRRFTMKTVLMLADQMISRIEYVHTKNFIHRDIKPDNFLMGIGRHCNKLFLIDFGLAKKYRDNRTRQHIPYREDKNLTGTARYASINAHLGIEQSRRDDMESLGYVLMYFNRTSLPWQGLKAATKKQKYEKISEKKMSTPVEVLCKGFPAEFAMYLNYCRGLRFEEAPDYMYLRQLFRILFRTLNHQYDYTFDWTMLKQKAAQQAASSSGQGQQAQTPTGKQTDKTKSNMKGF
# T3 sequence (Q96SW2 whole entry): as the sequence (Q96SW2 whole entry) above
# T3 sequence (Q16531 whole entry partner): as the sequence (Q16531 whole entry partner) above
IKZF2% degradation at 100 nM (IKZF2),IKZF2% degradation at 1 μM (IKZF2),IKZF1% degradation at 100 nM (IKZF1),IKZF1% degradation at 1 μM (IKZF1),GSPT1% degradation at 100 nM (GSPT1),GSPT1% degradation at 1 μM (GSPT1),CK1α % degradation at 100 nM (CK1α),CK1α % degradation at 1 μM (CK1α),Dmax (IKZF2),DC50 (IKZF2),Dmax (IKZF1),Dmax (GSPT1),Dmax (CK1α),DC50 (CK1α),Structure (SMILES)
92.2 ± 0.1%,94.4 ± 0.1%,96.9 ± 0.1%,97.6 ± 0.1%,16.6 ± 1.3%,21.3 ± 1.8%,59.7 ± 1.2%,64.4 ± 1.6%,–,–,–,–,–,–,"COc1ccc2cccc(CC(=O)Nc3ccc4c(c3)CN(C3CCC(=O)NC3=O)C4=O)c2c1 (centres unmarked) [DEG-68, N-(2-(2,6-dioxopiperidin-3-yl)-1-oxoisoindolin-5-yl)-2-(7-methoxynaphthalen-1-yl)acetamide]"
56.0%,87.7%,4.9%,7.0%,7.8%,10.6%,60.2%,74.6%,95.1%,73.1 nM,10.4%,14.6%,78.9%,21.1 nM,"CS(=O)(=O)c1ccc2cc(C(=O)Nc3ccc4c(c3)CN(C3CCC(=O)NC3=O)C4=O)ccc2c1 (centres unmarked) [DEG-93, N-(2-(2,6-dioxopiperidin-3-yl)-1-oxoisoindolin-5-yl)-6-(methylsulfonyl)-2-naphthamide]"
85.4 ± 0%,93.3 ± 0.1%,10.6 ± 1.2%,19.9 ± 0.3%,6.1 ± 0.3%,12.3 ± 0.9%,58 ± 2.2%,62.7 ± 1.4%,–,–,–,–,–,–,"O=C1CCC(N2Cc3cc(NC(=O)C4=Cc5ccc(OC(F)(F)F)cc5OC4)ccc3C2=O)C(=O)N1 (centres unmarked) [DEG-82, N-(2-(2,6-dioxopiperidin-3-yl)-1-oxoisoindolin-5-yl)-7-(trifluoromethoxy)-2H-chromene-3-carboxamide]"
93.8 ± 0.5%,88.5 ± 3%,98.5 ± 0.1%,98.4 ± 0.1%,63.1 ± 0.4%,69.4 ± 0.6%,−190.2 ± 2.8%,−153 ± 2.3%,–,–,–,–,–,–,"O=C1CCC(N2Cc3cc(NC(=O)Cc4ccc5ccccc5c4)ccc3C2=O)C(=O)N1 (centres unmarked) [DEG-71, N-(2-(2,6-dioxopiperidin-3-yl)-1-oxoisoindolin-5-yl)-2-(naphthalen-2-yl)acetamide]"
82.6 ± 0.3%,93.9 ± 0%,59.5 ± 0.2%,84 ± 0.2%,9 ± 1.6%,13.7 ± 0.3%,63.7 ± 1.1%,69.8 ± 0.5%,–,–,–,–,–,–,"O=C1CCC(N2Cc3cc(NC(=O)c4cccc(C(=O)c5ccccc5)c4)ccc3C2=O)C(=O)N1 (centres unmarked) [DEG-51, 3-benzoyl-N-(2-(2,6-dioxopiperidin-3-yl)-1-oxoisoindolin-5-yl)benzamide]"
51.8%,85.2%,8.7%,20.8%,9.3%,13.2%,51.3%,71.5%,92.8%,78.8 nM,30.5%,13.7%,76.7%,42.5 nM,"CN1C(=O)COc2cc(C(=O)Nc3ccc4c(c3)CN(C3CCC(=O)NC3=O)C4=O)ccc21 (centres unmarked) [DEG-94, N-(2-(2,6-dioxopiperidin-3-yl)-1-oxoisoindolin-5-yl)-4-methyl-3-oxo-3,4-dihydro-2H-benzo[b][1,4]oxazine-7-carboxamide]"
89.5 ± 0.1%,93.2 ± 0.7%,98.6 ± 0.1%,98.6 ± 0.1%,12.5 ± 1.2%,16.8 ± 1.9%,64.8 ± 0.3%,65.5 ± 2.3%,–,–,–,–,–,–,"COc1ccc(Oc2cccc(C(=O)Nc3ccc4c(c3)CN(C3CCC(=O)NC3=O)C4=O)c2)cc1 (centres unmarked) [DEG-69, N-(2-(2,6-dioxopiperidin-3-yl)-1-oxoisoindolin-5-yl)-3-(4-methoxyphenoxy)benzamide]"
70.8 ± 0.6%,90.7 ± 0.2%,13.4 ± 0.7%,35.2 ± 0.6%,−0.1 ± 1.2%,1.2 ± 0.3%,46.4 ± 1.4%,60.3 ± 1.2%,–,–,–,–,–,–,"O=C1CCC(N2Cc3cc(NC(=O)C4=COc5ccccc5O4)ccc3C2=O)C(=O)N1 (centres unmarked) [DEG-63, N-(2-(2,6-dioxopiperidin-3-yl)-1-oxoisoindolin-5-yl)benzo[b][1,4]dioxine-2-carboxamide]"
41.8 ± 2%,82.5 ± 0.9%,2.7 ± 1.2%,6.5 ± 1.2%,−1.7 ± 3.4%,−0.9 ± 2.6%,33.2 ± 3.2%,54.5 ± 3.8%,–,–,–,–,–,–,"O=C1CCC(N2Cc3cc(NC(=O)c4ccc5ncsc5c4)ccc3C2=O)C(=O)N1 (centres unmarked) [DEG-72, N-(2-(2,6-dioxopiperidin-3-yl)-1-oxoisoindolin-5-yl)benzo[d]thiazole-6-carboxamide]"
60 ± 1%,89 ± 0.2%,6 ± 0.1%,6.3 ± 1.6%,−1.9 ± 1.4%,7.8 ± 1.4%,54.5 ± 0.6%,71.1 ± 0.6%,–,–,–,–,–,–,"O=C1CCC(N2Cc3cc(NC(=O)c4ccc5cc(O)ccc5c4)ccc3C2=O)C(=O)N1 (centres unmarked) [DEG-90, N-(2-(2,6-dioxopiperidin-3-yl)-1-oxoisoindolin-5-yl)-6-hydroxy-2-naphthamide]"
75 ± 0.8%,90.3 ± 0%,15.7 ± 1.1%,33.9 ± 0.9%,9.2 ± 0.8%,14.4 ± 0.5%,65.5 ± 1.3%,69.5 ± 1.4%,–,–,–,–,–,–,"COc1ccc2c(c1)C=C(C(=O)Nc1ccc3c(c1)CN(C1CCC(=O)NC1=O)C3=O)CO2 (centres unmarked) [DEG-78, N-(2-(2,6-dioxopiperidin-3-yl)-1-oxoisoindolin-5-yl)-6-methoxy-2H-chromene-3-carboxamide]"
74.7 ± 0.3%,89.5 ± 0.2%,17.6 ± 0.8%,40.3 ± 0.9%,11.6 ± 1.4%,16.5 ± 2%,64.3 ± 1.3%,68.3 ± 1.2%,–,–,–,–,–,–,"COc1ccc(/C=C/C(=O)Nc2ccc3c(c2)CN(C2CCC(=O)NC2=O)C3=O)cc1 (centres unmarked) [DEG-60, (E)-N-(2-(2,6-dioxopiperidin-3-yl)-1-oxoisoindolin-5-yl)-3-(4-methoxyphenyl)acrylamide]"
61.1 ± 0.5%,90.6 ± 0.1%,6.4 ± 0.3%,22.3 ± 0.5%,2 ± 2.1%,4.4 ± 1.9%,50.2 ± 1.7%,64.7 ± 0.4%,–,–,–,–,–,–,"O=C1CCC(N2Cc3cc(NC(=O)c4ccc5occc5c4)ccc3C2=O)C(=O)N1 (centres unmarked) [DEG-62, N-(2-(2,6-dioxopiperidin-3-yl)-1-oxoisoindolin-5-yl)benzofuran-5-carboxamide]"
